In patent US20060110456A1, “Method for biocidal and/or biostatic treatment and compositions therefor” (NATIONAL UNIVERSITY OF SINGAPORE, priority 2004, published 2006):

How the values were obtained:
[1] = system: marine bacteria (ten strains); assay: Bio-adhesion assay (crystal violet microplate); assay type: cell-based, marine bacteria isolated from Singapore fouling communities; settings: 50 μl of 125 μg ml^−1 drug + 200 μl bacteria, 2 hours
Method in brief: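 Ten marine bacterial strains (A600 0.6 in seawater) left to attach for 2 hours at 28° C on hydrophobic and hydrophilic polystyrene, with 50 μl of drug at 125 μg ml^−1 added. Adherent cells stained with crystal violet, dye extracted with desoxycholate, A590 read; significance by t-test, in duplicate.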

[2] = system: Bugula neritina larvae; assay: Bioassay against bryozoan larvae; assay type: in vivo; settings: crude rank, best (1) to worst (8)
[3] = system: hard fouling (barnacles, serpulids, spirorbids); assay: Field testing of coated rods; assay type: in vivo; set-up: Total hard fouling, difference in mean cover (%), drug vs control / Barnacles, difference in mean cover (%), drug vs control: tested at 25 µg/ml of coating; Serpulids, difference in mean cover (%), drug vs control: tested at 25 µg/ml of coating mix
[4] = drug + VC50 rods vs VC50 control
[5] = drug + VC50 rods vs uncoated blank control
[6] = rods coated with drug + VC50, field test

CN[C@H]1CC[C@@H](c2ccc(Cl)c(Cl)c2)c2ccccc21.Cl [ZLT, sertraline hydrochloride]
Effect of drugs on adhesion of bacteria ([1]; strain 1 (Rhodovulum), hydrophobic surface (untreated polystyrene)): *** (*** p < 0.005) | Effect of drugs on adhesion of bacteria ([1]; strain 4 (Bacillus), hydrophobic surface (untreated polystyrene)): *** (*** p < 0.005) | Effect of drugs on adhesion of bacteria ([1]; strain 9 (Bacillus), hydrophobic surface (untreated polystyrene)): * (Significantly less adhesion observed: * p < 0.05) | Effect of drugs on adhesion of bacteria ([1]; strain 20, hydrophobic surface (untreated polystyrene)): *** (*** p < 0.005) | Effect of drugs on adhesion of bacteria ([1]; strain 27, hydrophobic surface (untreated polystyrene)): *** (*** p < 0.005) | Effect of drugs on adhesion of bacteria ([1]; strain 28, hydrophobic surface (untreated polystyrene)): *** (*** p < 0.005) | Effect of drugs on adhesion of bacteria ([1]; strain 30, hydrophilic surface (tissue culture treated polystyrene)): *** (*** p < 0.005) | Prevention of settlement of Bugula larvae [2]: 1 | Performance against serpulid polychaetes ([3]; coated rods, in words): higher cover of serpulid and spirorbid polychaetes compared to VC50 alone | Performance against spirorbid polychaetes ([3]; coated rods, in words): higher cover of serpulid and spirorbid polychaetes compared to VC50 alone | Overall performance in field assay ([3]; crude rank, best (1) to worst (8)): 8 | Barnacles, difference in mean cover (%), drug vs VC50 [3, 4]: −11.67% | Serpulids, difference in mean cover (%), drug vs VC50 [3, 4]: +1.66% | Spirorbids, difference in mean cover (%), drug vs VC50 [3, 4]: +6.67% | Total hard fouling, difference in mean cover (%), drug vs VC50 [3, 4]: −3.33% | Barnacles, difference in mean cover (%), drug vs control [3, 5]: −74.67% | Serpulids, difference in mean cover (%), drug vs control [3, 5]: 0% | Spirorbids, difference in mean cover (%), drug vs control [3, 5]: +28.33% | Total hard fouling, difference in mean cover (%), drug vs control [3, 5]: −46.33% | Reduction of total hard fouling cover compared to VC50 alone ([3]; drug at 25 ug per ml of VC50 coating): 3.3% | Effect of addition of drug on antifouling performance of VC50 coating (total hard fouling) ([3]; drug at 25 ug per ml of VC50 coating, in words): did not significantly improve the antifouling performance of VC50 | Barnacles Mean cover (%) [3, 6]: 18.33% | Serpulids Mean cover (%) [3, 6]: 3.33% | Spirorbids Mean cover (%) [3, 6]: 30% | Total hard fouling Mean cover (%) ([3]; rods coated with drug + VC50, field test, percentage cover within 6 mm×50 mm transect): 51.67%
